Values of other authors, collected in patent US20080268488A1, “Screening Method for Dnak Inhibitors” (priority 2005, published 2008).
No end group written: not given here.

Details: aminopeptidase and carboxypeptidase cleavage products observed

Row | Sequence | susceptibility to proteolytic degradation in the presence of mammalian serum
1 | GKPRPYSPRPTSHPRPIRV [drosocin, Gly-Lys-Pro-Arg-Pro-Tyr-Ser-Pro-Arg-Pro-Thr-Ser-His-Pro-Arg-Pro-Ile-Arg-Val] | highly susceptible to proteolytic degradation
2 | VDKGSYLPRPTPPRPIYNRN [pyrrhocoricin] | highly susceptible to proteolytic degradation
